In US10723694B2, “Propargyl-functionalized macrocyclic compounds” (KUWAIT UNIVERSITY, priority 2018, dated 2020):

Experiments:
Assay type in all cases: physicochemical
[1] = Ground state electronic absorption spectra (UV-Vis) in DMF; conditions: for log ε at λmax / λmax (Q band absorption): in DMF
Method: Electronic absorption, which is measured by UV-Vis spectroscopy, is one of the best spectroscopic techniques for determination of Pc formation and characterization of Pc compounds. Generally, two absorption bands are observed for Pc structures in their electronic absorption spectra. One band, known as Q, is observed at around 600-750 nm due to the π→π* transitions from the highest occupied molecular orbital (HOMO) to the lowest unoccupied molecular orbital (LUMO) of the Pc ring, while the other band, known as B, or the Soret band, is observed at around 300-450 nm due to transitions from deeper it levels to the LUMO. The ground state electronic absorption spectra of the studied novel Pcs were measured in DMF solution.
The ground state electronic absorption spectra show monomeric behavior evidenced by single (narrow) Q band absorptions, which is typical for metallated complexes. The Q bands appear around 680 nm for the symmetric Pc2 and both asymmetric Pc3 and Pc4 in DMF (Table 1). On the other hand, the non-peripheral Pc5 show approximately 20 nm red-shifted Q band absorption at 700 nm when compared to the peripheral counterparts in the solvent (Table 1). The observed red spectral shifts are typical for Pc molecules with substituents at the non-peripheral positions and are presumably due to linear combinations of the atomic orbitals (LCAO) coefficients at the non-peripheral positions of the HOMO being greater than those at the peripheral positions. As a result, the HOMO level is destabilized more at the non-peripheral site than it is at the peripheral one. Essentially, the energy gap (ΔE) between the HOMO and LUMO becomes smaller, resulting in a bathochromic shift. The 49 nm blue shift for AzaPc1 is caused by the additional nitrogen atoms instead of CH groups in the Pc macrocyclic system. The B-bands are broad due to the superimposition of the B1 and B2 bands in the 340 to 380 nm region.

[2] = Photodegradation under light irradiation; conditions: DMF
From the text: Photodegradation is an indicator of the stability of compounds, which is useful for determining the photosensitizing ability of the compounds as PDT agents. The stability of photosensitizers under light irradiation is important for photochemical processes such as PDT because photosensitizers need to survive for a specific period in the body. Photodegradation degree can be detected by photodegradation quantum yield (Φd), which depends on structure, light intensity, solvent used and concentration of a compound of interest. Photodegradation of a compound under light irradiation can be used to study the compound stability, which is important for those molecules intended for the application in photocatalytic reactions. Collapse of absorption spectra without any distortion of the shape of the absorption spectra confirms photo-degradation not associated with photo-transformation into different forms of Pcs absorbing light in the visible region. The spectral changes for all of the exemplary AzaPc1/Pc2-Pc5 compounds were determined in response to light irradiation, and photodegradation occurred without phototransformation, because only Q and B bands were decreased, i.e., no new band formation was observed.
Pc derivatives and their macrocyclic analogs generate singlet oxygen when they are illuminated by an appropriate light. The formed […] via photooxidation reactions. Generally, photodegradation of Pc/Pc-analog compounds by light irradiation results in formation of the phthalamide residue. The photodegradation behavior of AzaPc1/Pc2-Pc5 in DMF were determined. The Φd values of these novel systems are on the order of 10^−4 (Table 2), consistent with values for other Pcs containing different metals and substituents.

[3] = Singlet oxygen quantum yield, chemical method with DPBF quencher; conditions: DMF, 414 nm
From the text: Transferring of energy from a triplet state of a photosensitizer such as Pc to ground state molecular oxygen leads to the production of singlet oxygen. There is a necessity of high efficiency of energy transfer between the excited triplet state of photosensitizer and the ground state of oxygen in order to generate large amounts of singlet oxygen, essential for PDT applications. The singlet oxygen quantum yield (ΦA) values give the amount of the generated singlet oxygen. This value is an indication of the potential provided by the compounds as photosensitizers in applications where singlet oxygen is required. The ΦΔ values for AzaPc1/Pc2-Pc5 were determined in DMF by a chemical method using 1,3-diphenylisobenzofuran (DPBF) as a quencher. The disappearance of DPBF at 414 nm was monitored using UV-Vis spectrophotometer. Many factors can be responsible for the magnitude of the determined singlet oxygen quantum yield, including triplet excited state energy, ability of substituents and solvents to quench the singlet oxygen, the triplet excited state lifetime and the efficiency of the energy transfer between the triplet excited state and the ground state of oxygen.

[4] = Fluorescence excitation and emission spectra in DMF; conditions: for Stokes shift ΔStokes: difference between excitation and emission maxima
Method: Fluorescence behaviors of the AzaPc1/Pc2-Pc5 compounds were evaluated in DMF solutions. FIGS. 12A-12E show absorption, fluorescence emission and excitation spectra of these complexes.
Excitation maxima appear at 629 nm for AzaPc1, 679 nm for Pc2, 678 nm for Pc3, 682 nm for Pc4 and 700 nm for Pc5 in DMF. Emission maxima appear at 639 nm, 683 nm, 686 nm, 688 nm and 707 nm for AzaPc1/Pc2-Pc5, respectively. The observed Stokes' shifts, which are differences between the excitation and emission wavelength maxima, are between 4 and 10 nm for all of the zinc (II) complexes (Table 1). The observed Stokes' shifts are consistent with those of typical zinc (II) phthalocyanine complexes.

[5] = Fluorescence lifetime by time correlated single photon counting (TCSPC); conditions: DMF
Method: Fluorescence lifetime (τF) refers to the average time that a molecule stays in its excited state before returning to its ground state by photon emission. The fluorescence lifetime values of the AzaPc1/Pc2-Pc5 compounds were determined by using time correlated single photon counting (TCSPC). All time-resolved fluorescence studies were carried out for the exemplary compounds in solution in DMF, and the fluorescence decays of the macrocycles were concluded in mono exponential curves.

[6] = Fluorescence quantum yield determination; conditions: DMF per text (Table 2 title prints DMSO)
From the text: Fluorescence emission occurs when an orbital electron of a photosensitizer relaxes from its singlet state to ground state upon emitting a photon of light. Fluorescence quantum yield (ΦF) indicates a measure of the efficiency of the fluorescence process and is defined as the ratio of the number of photons emitted to the number of photons absorbed. The fluorescence quantum yields (ΦF) may be determined using established methods described in existing literature. The ΦF values of the present AzaPc1/Pc2-Pc5 compounds are typical for those phthalocyanine compounds (Table 2). Particularly, ΦF values were measured to be 0.11 for AzaPc1, 0.16 for Pc2, 0.17 for Pc3, 0.14 for Pc4 and 0.11 for Pc5 in the exemplary DMF solvent system.

[7] = Aggregation studies (UV-Vis) in organic solvents and at different concentrations
From the text: Macrocycle Pcs generate high aggregation tendencies due to the intermolecular interactions that take place between their 18 π-electrons. Accordingly, this self-association process would minimize their solubility in most solvent systems and therefore affect their spectroscopic, photophysical, photochemical, and electrochemical properties. Generally, aggregation is highly dependent on the concentration, temperature, nature of the substituents and/or their position and orientation with respect to the Pc skeleton, nature of the solvent media, and the central metal ion in the Pc-cores.
Pc molecules can form two types of aggregates in dissolved systems—H-type and J-type-depending on the nature, position and/or orientation of the substituents. In general, Pcs form H-type aggregates in solution, whereas J-type aggregates occur rarely. The formation of J-type aggregates among Pc structures is significant, since J-type aggregation is photoactive, while H-type aggregation is not.
The aggregation properties for the AzaPc1/Pc2-Pc5 compounds were determined in different organic solvents, namely, DCM, chloroform, DMF, DMSO, ethanol, methanol, THF and toluene.
Aggregation behaviors for the AzaPc1/Pc2-Pc5 compounds were also investigated in DMF at different concentrations in order to establish a suitable concentration for further photophysical/photochemical studies.

Row | SMILES | Blue shift of Q band absorption ([1]; DMF, aza analogue versus Pc macrocycle) [nm] | log ε at λmax [1] | λmax (Q band absorption) [1] [nm] | Photodegradation quantum yield Φd (×10^−4) [2] | Singlet oxygen quantum yield ΦΔ [3] | λEm (emission maximum) [4] [nm] | λEx (excitation maximum) [4] [nm] | Stokes shift ΔStokes [4] [nm] | Fluorescence lifetime τF [5] [ns] | Fluorescence quantum yield ΦF [6] | Aggregation in methanol [7]
1 | C#CCOCc1cc(C)cc(COCC#C)c1Oc1nc2c(nc1Oc1c(COCC#C)cc(C)cc1COCC#C)C1=Nc3c4nc(Oc5c(COCC#C)cc(C)cc5COCC#C)c(Oc5c(COCC#C)cc(C)cc5COCC#C)nc4c4[n]3[Zn][n]3c(c5nc(Oc6c(COCC#C)cc(C)cc6COCC#C)c(Oc6c(COCC#C)cc(C)cc6COCC#C)nc5c3=NC3=NC(=N4)c4nc(Oc5c(COCC#C)cc(C)cc5COCC#C)c(Oc5c(COCC#C)cc(C)cc5COCC#C)nc43)=NC2=N1 [AzaPc1] | 49 | 5.07 | 629 | 4.30 ×10^−4 | 0.63 | 639 | 629 | 10 | 2.46 | 0.14 | 
2 | C#CCOCc1cc(C)cc(COCC#C)c1Oc1cc2c(cc1Oc1c(COCC#C)cc(C)cc1COCC#C)C1=Nc3c4cc(Oc5c(COCC#C)cc(C)cc5COCC#C)c(Oc5c(COCC#C)cc(C)cc5COCC#C)cc4c4[n]3[Zn][n]3c(c5cc(Oc6c(COCC#C)cc(C)cc6COCC#C)c(Oc6c(COCC#C)cc(C)cc6COCC#C)cc5c3=NC3=NC(=N4)c4cc(Oc5c(COCC#C)cc(C)cc5COCC#C)c(Oc5c(COCC#C)cc(C)cc5COCC#C)cc43)=NC2=N1 [Pc2] |  | 5.33 |  | 1.58 ×10^−4 | 0.60 | 683 | 679 | 4 | 3.30 | 0.16 | 
3 | C#CCOCc1cc(C)cc(COCC#C)c1Oc1cc2c(cc1Cl)C1=Nc3c4cc(Oc5c(COCC#C)cc(C)cc5COCC#C)c(Cl)cc4c4[n]3[Zn][n]3c(c5cc(Cl)c(Oc6c(COCC#C)cc(C)cc6COCC#C)cc5c3=NC3=NC(=N4)c4cc(Oc5c(COCC#C)cc(C)cc5COCC#C)c(Cl)cc43)=NC2=N1 [Pc3] |  | 5.33 |  | 1.40 ×10^−4 | 0.60 | 686 | 678 | 8 | 2.84 | 0.17 | 

Further lines, results first:

Row | Blue shift of Q band absorption ([1]; DMF, aza analogue versus Pc macrocycle) [nm] | log ε at λmax [1] | λmax (Q band absorption) [1] [nm] | Photodegradation quantum yield Φd (×10^−4) [2] | Singlet oxygen quantum yield ΦΔ [3] | λEm (emission maximum) [4] [nm] | λEx (excitation maximum) [4] [nm] | Stokes shift ΔStokes [4] [nm] | Fluorescence lifetime τF [5] [ns] | Fluorescence quantum yield ΦF [6] | Aggregation in methanol [7] | SMILES
4 |  | 5.21 |  | 1.12 ×10^−4 | 0.57 | 688 | 682 | 6 | 3.37 | 0.14 | small H-type aggregates were detected | C#CCOCc1cc(C)cc(COCC#C)c1Oc1ccc2c(c1)C1=NC2=Nc2c3cc(Oc4c(COCC#C)cc(C)cc4COCC#C)ccc3c3[n]2[Zn][n]2c(c4ccc(Oc5c(COCC#C)cc(C)cc5COCC#C)cc4c2=NC2=NC(=N3)c3cc(Oc4c(COCC#C)cc(C)cc4COCC#C)ccc32)=N1 [Pc4]
5 |  | 5.37 | 670 | 0.23 ×10^−4 | 0.56 | 676 | 670 | 6 | 1.03 | 0.17 |  | [Zn+2].c1ccc2c(c1)-c1nc-2nc2[n-]c(nc3nc([n-]c4nc(n1)-c1ccccc1-4)-c1ccccc1-3)c1ccccc21 [Std-ZnPc, zinc(II) phthalocyanine, reference compound]
